Laboratory results from patent US10113155B2, “Steviol glycosyltransferase and gene encoding same” (SUNTORY HOLDINGS LIMITED, priority 2012, dated 2018).

B1: UGT73E1: reported stevia glycosyltransferase, 98% identical to UGT73E1 homologous protein 1 (protein, UniProt Q6VAA9 1-495, looked up)
UDP-glycosyltransferase 73E1: MSPKMVAPPTNLHFVLFPLMAQGHLVPMVDIARILAQRGATVTIITTPYHANRVRPVISRAIATNLKIQLLELQLRSTEAGLPEGCESFDQLPSFEYWKNISTAIDLLQQPAEDLLRELSPPPDCIISDFLFPWTTDVARRLNIPRLVFNGPGCFYLLCIHVAITSNILGENEPVSSNTERVVLPGLPDRIEVTKLQIVGSSRPANVDEMGSWLRAVEAEKASFGIVVNTFEELEPEYVEEYKTVKDKKMWCIGPVSLCNKTGPDLAERGNKAAITEHNCLKWLDERKLGSVLYVCLGSLARISAAQAIELGLGLESINRPFIWCVRNETDELKTWFLDGFEERVRDRGLIVHGWAPQVLILSHPTIGGFLTHCGWNSTIESITAGVPMITWPFFADQFLNEAFIVEVLKIGVRIGVERACLFGEEDKVGVLVKKEDVKKAVECLMDEDEDGDQRRKRVIELAKMAKIAMAEGGSSYENVSSLIRDVTETVRAPH

Experiments:
[1] = target: T1, UGT73E1 homologous protein 1 (Stevia rebaudiana, UniProt Q6VAA9); assay: Enzyme activity of UGT73E1 homologous protein 1: glucosylation of sugar acceptor substrates, LC-MS analysis; assay type: biochemical; conditions: for products found in the reaction solution with UGT73E1 homologous protein 1: 2 mM UDP-glucose, 0.1 mM sugar acceptor substrate, potassium phosphate buffer pH 7.0, 30° C., 1 hour
T1 construct: designed to carry the open reading frame of the UGT73E1 homologous protein 1 gene in frame with a His tag; made in house; host or cells: E. coli BL21(DE3)
T1 sequence (Q6VAA9 whole entry H50D/D106H/L131W/P152K/L157P/I160M/V199L/A305T/L422S): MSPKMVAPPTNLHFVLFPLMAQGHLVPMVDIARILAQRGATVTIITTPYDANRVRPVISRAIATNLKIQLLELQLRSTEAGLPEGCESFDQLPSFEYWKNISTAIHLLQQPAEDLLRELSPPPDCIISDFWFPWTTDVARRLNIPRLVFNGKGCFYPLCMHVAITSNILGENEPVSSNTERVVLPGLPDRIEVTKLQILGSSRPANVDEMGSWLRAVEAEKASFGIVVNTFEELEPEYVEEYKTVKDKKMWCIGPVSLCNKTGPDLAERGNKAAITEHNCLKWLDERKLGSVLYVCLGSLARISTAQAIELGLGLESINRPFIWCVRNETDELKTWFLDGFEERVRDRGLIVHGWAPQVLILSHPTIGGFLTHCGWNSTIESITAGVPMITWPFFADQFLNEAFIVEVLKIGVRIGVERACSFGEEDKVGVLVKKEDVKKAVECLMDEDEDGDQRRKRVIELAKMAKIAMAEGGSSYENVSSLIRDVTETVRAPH
Method: Standard enzyme reaction conditions are as follows. A reaction solution (2 mM UDP-glucose, 0.1 mM sugar acceptor substrate (steviol), 100 mM potassium phosphate buffer (pH 7.0), 25 μl purified UGT73E1 homologous protein 1 enzyme solution) was prepared in a volume of 50 μl with distilled water and reacted at 30° C. for 1 hour. The enzyme reaction solution (5 μl) was analyzed by LC-MS under the following conditions.
Column: Waters Sunfire C18 3.5 um (2.0 mm I.D.×20 mm)
Mobile phase: A: MilliQ Water (+0.05% formic acid), B: MeCN
Gradient: linear concentration gradient of B from 15% to 55% over 20 minutes
Flow rate: 0.2 ml per minute

[2] = reported in previous studies (Non-patent Document 2); cited from earlier work

Row | Molecule | products found in the reaction solution with UGT73E1 homologous protein 1 [1] | stevioside peak in the reaction solution with UGT73E1 homologous protein 1 ([1]; substrate reacted with UGT73E1 homologous protein 1) | glycosylation activity on steviol glycosides [2]
1 | C=C1C[C@@]23CC[C@H]4[C@@](C)(CCC[C@@]4(C)C(=O)O[C@@H]4O[C@H](CO)[C@@H](O)[C@H](O)[C@H]4O)[C@@H]2CC[C@]1(O[C@@H]1O[C@H](CO)[C@@H](O)[C@H](O)[C@H]1O)C3 [rubusoside] | Compound Z which appears to be a triglucoside of steviol was newly generated | no significant stevioside peak can be found | –
2 | C=C1C[C@@]23CC[C@H]4[C@@](C)(CCC[C@@]4(C)C(=O)O)[C@@H]2CC[C@]1(O)C3 (single isomer, unassigned) [steviol] | four types of products were newly found | – | –
3 | C=C1C[C@@]23CC[C@H]4[C@@](C)(CCC[C@@]4(C)C(=O)O)[C@@H]2CC[C@]1(O[C@@H]1O[C@H](CO)[C@@H](O)[C@H](O)[C@H]1O[C@@H]1O[C@H](CO)[C@@H](O)[C@H](O)[C@H]1O)C3 [steviolbioside] | a product which appears to be stevioside (peak F) was also detected | – | –
4 | C=C1C[C@@]23CC[C@H]4[C@@](C)(CCC[C@@]4(C)C(=O)O)[C@@H]2CC[C@]1(O[C@@H]1O[C@H](CO)[C@@H](O)[C@H](O)[C@H]1O)C3 [steviolmonoside] | two peaks (peak E and peak F) were newly obtained | – | –
5 | B1 | – | – | no glycosylation activity on steviol glycosides
